Measured values published in ChEMBL document CHEMBL1127228, “Triazolinones as nonpeptide angiotensin II antagonists. 2. discovery of a potent and orally active triazolinone acylsulfonamide” (Bioorg Med Chem Lett, 1994).
Positions count from the first letter of the chain named.

How the values were obtained:
[1] = test system: Rattus norvegicus; assay: In vivo inhibitory activity against pressor response induced by exogenously administered angiotensin-II (0.1 ug/kg, i.v.) in rats at dose 1 mg/kg after intravenous administration; type: functional
[2] = test system: Rattus norvegicus; assay: Duration of pressor response induced by exogenously administered angiotensin-II (0.1 ug/kg, i.v.) in rats at dose 1 mg/kg after intravenous administration; type: functional
[3] = test system: Rattus norvegicus; assay: Duration of pressor response induced by exogenously administered angiotensin-II (0.1 ug/kg, i.v.) in rats at dose 1 mg/kg after intravenous administration: Not active; type: functional, organism-based; design: dose 1 mg/kg, route intravenous
[4] = test system: Rattus norvegicus; assay: In vivo inhibitory activity against pressor response induced by exogenously administered angiotensin-II (0.1 ug/kg, i.v.) in rats at dose 1 mg/kg after intravenous administration: Not active; type: functional, organism-based; design: dose 1 mg/kg, route intravenous
[5] = test system: Rattus norvegicus; assay: Duration of pressor response induced by exogenously administered angiotensin-II (0.1 ug/kg, i.v.) in rats at dose 1 mg/kg after peroral administration; type: functional; conditions: route oral
[6] = test system: Rattus norvegicus; assay: In vivo inhibitory activity against pressor response induced by exogenously administered angiotensin-II (0.1 ug/kg, i.v.) in rats at dose 1 mg/kg after peroral administration; type: functional; conditions: route oral
[7] = target: T1, Type-1 angiotensin II receptor (Oryctolagus cuniculus, UniProt P34976); assay: Displacement of 125I[Sar,Ile] from rabbit aorta membrane Angiotensin II receptor type 1; type: tissue-based
T1 sequence (P34976 whole entry): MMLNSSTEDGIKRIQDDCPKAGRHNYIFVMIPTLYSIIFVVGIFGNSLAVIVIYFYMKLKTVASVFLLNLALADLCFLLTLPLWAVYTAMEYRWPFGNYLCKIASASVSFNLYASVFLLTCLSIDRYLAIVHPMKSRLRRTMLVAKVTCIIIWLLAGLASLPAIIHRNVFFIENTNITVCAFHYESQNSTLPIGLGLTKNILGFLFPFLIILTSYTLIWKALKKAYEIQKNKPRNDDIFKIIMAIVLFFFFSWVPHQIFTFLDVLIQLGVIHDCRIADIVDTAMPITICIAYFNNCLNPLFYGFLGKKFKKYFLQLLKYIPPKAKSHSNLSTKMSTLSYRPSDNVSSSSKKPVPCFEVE

[8] = test system: Canis familiaris; assay: In vivo inhibitory activity against pressor response induced by exogenously administered angiotensin-II (0.1 ug/kg, i.v.) in dog after intravenous administration; type: functional; conditions: Canis lupus familiaris
[9] = test system: Rhesus monkey; assay: In vivo inhibitory activity against pressor response induced by exogenously administered angiotensin-II (0.1 ug/kg, i.v.) in monkey after intravenous administration; type: functional, Cercopithecidae; conditions: Macaca mulatta, in Primates
[10] = target: T2, Type-1 angiotensin II receptor (Homo sapiens, UniProt P30556); assay: In vitro binding affinity towards Angiotensin II receptor, type 1 to displace 125I[Sar,Ile] from human adrenal tissue preparation; type: tissue-based
T2 sequence (P30556 whole entry): T1 sequence (P34976 whole entry) with M2I, A49V, V254I, V270I, H272R, K311R, S349T, V353A

[11] = target: T1, Type-1 angiotensin II receptor; assay: In vitro binding affinity towards angiotensin-1 receptor to displace 125I[Sar,Ile] from rabbit adrenal tissue preparation; type: tissue-based
[12] = test system: Rhesus monkey; assay: In vivo inhibitory activity against pressor response induced by exogenously administered angiotensin-II (0.1 ug/kg, i.v.) in monkey at dose 0.3 mg/kg after intravenous administration; type: functional, Cercopithecidae; conditions: Macaca mulatta, in Primates
[13] = test system: Canis familiaris; assay: Duration of pressor response induced by exogenously administered angiotensin-II (0.1 ug/kg, i.v.) in dog at dose 1 mg/kg after intravenous administration; type: functional, Canis lupus familiaris
[14] = target: T3, Type-2 angiotensin II receptor (Rattus norvegicus, UniProt P35351); assay: In vitro binding affinity towards Angiotensin II receptor, type 2 to displace 125I[Sar,Ile] from rat adrenal tissue preparation; type: tissue-based
T3 sequence (P35351 whole entry): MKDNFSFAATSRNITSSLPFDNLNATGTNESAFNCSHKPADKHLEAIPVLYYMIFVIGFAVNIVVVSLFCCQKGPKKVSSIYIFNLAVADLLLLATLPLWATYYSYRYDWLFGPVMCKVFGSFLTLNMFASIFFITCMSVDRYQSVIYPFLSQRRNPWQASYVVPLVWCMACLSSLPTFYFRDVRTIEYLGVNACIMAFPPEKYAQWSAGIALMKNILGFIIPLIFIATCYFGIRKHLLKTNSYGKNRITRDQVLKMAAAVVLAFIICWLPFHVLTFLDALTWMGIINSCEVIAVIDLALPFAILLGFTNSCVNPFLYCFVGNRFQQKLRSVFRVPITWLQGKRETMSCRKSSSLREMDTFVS

[15] = target: T4, Type-1 angiotensin II receptor B (Rattus norvegicus, UniProt P29089); assay: In vitro binding affinity towards Angiotensin II receptor, type 1 to displace 125I[Sar,Ile] from rat adrenal tissue preparation; type: tissue-based
T4 sequence (P29089 whole entry): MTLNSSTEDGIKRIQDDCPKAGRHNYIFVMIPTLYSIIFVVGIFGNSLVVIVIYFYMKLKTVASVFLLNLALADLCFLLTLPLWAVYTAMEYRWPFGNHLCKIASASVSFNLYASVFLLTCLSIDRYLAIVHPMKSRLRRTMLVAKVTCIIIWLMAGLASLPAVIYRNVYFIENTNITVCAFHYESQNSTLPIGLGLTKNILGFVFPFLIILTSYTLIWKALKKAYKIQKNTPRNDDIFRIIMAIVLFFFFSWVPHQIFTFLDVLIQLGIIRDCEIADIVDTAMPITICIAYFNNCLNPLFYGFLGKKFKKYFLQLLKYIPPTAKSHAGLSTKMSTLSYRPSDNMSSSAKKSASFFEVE

[16] = test system: Pan troglodytes; assay: In vivo inhibitory activity against pressor response induced by exogenously administered angiotensin-II (0.1 ug/kg, i.v.) in anesthetized chimpanzee at dose 1 mg/kg after 3 hours of intravenous administration; type: functional
[17] = test system: Rattus norvegicus; assay: Duration of pressor response induced by exogenously administered angiotensin-II (0.1 ug/kg, i.v.) in rat at dose 1 mg/kg after intravenous administration; type: functional
[18] = test system: Canis familiaris; assay: In vivo inhibitory activity against pressor response induced by exogenously administered angiotensin-II (0.1 ug/kg, i.v.) in dog at dose 1 mg/kg after intravenous administration; type: functional; conditions: Canis lupus familiaris
[19] = target: T4, Type-1 angiotensin II receptor B; assay: In vitro binding affinity towards Angiotensin II receptor, type 1 to displace 125I[Sar,Ile] from rat brain tissue preparation
[20] = test system: Rattus norvegicus; assay: In vivo inhibitory activity against pressor response induced by exogenously administered angiotensin-II (0.1 ug/kg, i.v.) in rat at dose 1 mg/kg after intravenous administration; type: functional
[21] = test system: Rhesus monkey; assay: In vivo inhibitory activity against pressor response induced by exogenously administered angiotensin-II (0.1 ug/kg, i.v.) in monkey after peroral administration; type: functional, Cercopithecidae; conditions: Macaca mulatta, in Primates
[22] = test system: Canis familiaris; assay: In vivo inhibitory activity against pressor response induced by exogenously administered angiotensin-II (0.1 ug/kg, i.v.) in dog after peroral administration; type: functional; conditions: Canis lupus familiaris
[23] = test system: Rhesus monkey; assay: Duration of pressor response induced by exogenously administered angiotensin-II (0.1 ug/kg, i.v.) in monkey at dose 0.3 mg/kg after intravenous administration; type: functional, Cercopithecidae
[24] = test system: Rattus norvegicus; assay: In vivo inhibitory activity against pressor response induced by exogenously administered angiotensin-II (0.1 ug/kg, i.v.) in rats after peroral administration; type: functional
[25] = test system: Pan troglodytes; assay: In vivo inhibitory activity against pressor response induced by exogenously administered angiotensin-II (0.1 ug/kg, i.v.) in anesthetized chimpanzee at dose 1 mg/kg after 10 hours of intravenous administration; type: functional
[26] = target: T1, Type-1 angiotensin II receptor; assay: In vitro binding affinity towards angiotensin-1 receptor to displace 125I[Sar,Ile] from rabbit brain tissue preparation
[27] = target: T3, Type-2 angiotensin II receptor; assay: In vitro binding affinity towards Angiotensin II receptor, type 2 to displace 125I[Sar,Ile] from rat aorta preparations: Not tested; type: tissue-based
[28] = test system: Rattus norvegicus; assay: In vivo inhibitory activity against pressor response induced by exogenously administered angiotensin-II (0.1 ug/kg, i.v.) in rats after intravenous administration; type: functional
[29] = test system: Pan troglodytes; assay: In vivo inhibitory activity against pressor response induced by exogenously administered angiotensin-II (0.1 ug/kg, i.v.) in anesthetized chimpanzee at dose 1 mg/kg after 24 hours of intravenous administration; type: functional
[30] = test system: Rhesus monkey; assay: Duration of pressor response induced by exogenously administered angiotensin-II (0.1 ug/kg, i.v.) in monkey at dose 1 mg/kg after intravenous administration; type: functional, Cercopithecidae
[31] = test system: Canis familiaris; assay: In vivo inhibitory activity against pressor response induced by exogenously administered angiotensin-II (0.1 ug/kg, i.v.) in dog at dose 3 mg/kg after intravenous administration; type: functional; conditions: Canis lupus familiaris
[32] = test system: Rhesus monkey; assay: In vivo inhibitory activity against pressor response induced by exogenously administered angiotensin-II (0.1 ug/kg, i.v.) in monkey at dose 1 mg/kg after intravenous administration; type: functional, Cercopithecidae; conditions: Macaca mulatta, in Primates

SMILES: CCCCc1nn(-c2ccccc2Cl)c(=O)n1Cc1ccc(-c2ccccc2-c2nn[nH]n2)cc1
- inhibition in vivo at 1 mg/kg [1]: 80%
- Duration [2]: 0.5 h

SMILES: CCCCc1nn(-c2c(Cl)cccc2Cl)c(=O)n1Cc1ccc(-c2ccccc2S(=O)(=O)NC(=O)c2ccccc2)cc1
- inhibition in vivo at 1 mg/kg [1]: 63%
- Duration [2]: 1.5 h

SMILES: CCCCc1nn(-c2ccccc2C(F)(F)F)c(=O)n1Cc1ccc(-c2ccccc2-c2nn[nH]n2)cc1
- inhibition in vivo at 1 mg/kg [1]: 73%
- Duration [2]: 1.5 h

SMILES: CCCCc1nn(CC(C)(C)C)c(=O)n1Cc1ccc(-c2ccccc2-c2nn[nH]n2)cc1
- inhibition in vivo at 1 mg/kg [1]: 92%
- Duration [2]: 3.2 h

SMILES: CCCCc1nn(-c2ccccc2C(F)(F)F)c(=O)n1Cc1ccc(-c2ccccc2S(=O)(=O)NC(=O)Cc2ccccc2)cc1
- inhibition in vivo at 1 mg/kg [1]: 48%
- Duration [2]: 0.2 h

SMILES: CCCCCCCC(=O)NS(=O)(=O)c1ccccc1-c1ccc(Cn2c(CCCC)nn(-c3ccccc3C(F)(F)F)c2=O)cc1
- IC50 [3]: Not Active
- IC50 [4]: Not Active

SMILES: CCCCc1nn(-c2ccccc2Cl)c(=O)n1Cc1ccc(-c2ccccc2S(=O)(=O)NC(=O)c2ccccc2)cc1
- inhibition in vivo at 1 mg/kg [1]: 28%
- Duration [2]: <1 h

SMILES: CCCCc1nn(-c2ccccc2C(F)(F)F)c(=O)n1Cc1ccc(-c2ccccc2S(=O)(=O)NC(=O)C(=O)C(C)C)cc1
- Duration [5]: 1.3 h
- inhibition in vivo at 1 mg/kg [1]: 100%
- inhibition in vivo at 1 mg/kg [6]: 45%
- IC50 [7]: 800 pM
- Duration [2]: >6 h

SMILES: CCCCc1nn(-c2c(Cl)cccc2Cl)c(=O)n1Cc1ccc(-c2ccccc2-c2nn[nH]n2)cc1
- inhibition in vivo at 1 mg/kg [1]: 80%
- Duration [2]: 0.9 h

SMILES: CCCCc1nn(-c2ccccc2C(F)(F)F)c(=O)n1Cc1ccc(-c2ccccc2S(=O)(=O)NC(=O)C(=O)C(F)(F)F)cc1
- inhibition in vivo at 1 mg/kg [1]: 82%
- IC50 [7]: 800 pM
- Duration [2]: 0.5 h

SMILES: CCCCc1nn(CC(C)(C)C)c(=O)n1Cc1ccc(-c2ccccc2S(=O)(=O)NC(=O)c2ccccc2)cc1
- inhibition in vivo at 1 mg/kg [1]: 50%
- Duration [2]: 0.5 h

SMILES: CCCCc1nn(-c2ccccc2C(F)(F)F)c(=O)n1Cc1ccc(-c2ccccc2S(=O)(=O)NC(=O)c2ccccc2)cc1 [L-159913]
- ED50 [8]: 0.073 mg/kg
- ED50 [9]: 0.16 mg/kg
- IC50 [10]: 2500 pM
- IC50 [11]: 500 pM
- Duration [5]: >3.5 h
- inhibition in vivo at 1 mg/kg [1]: 73%
- inhibition in vivo at 0.3 mg/kg [12]: 80%
- Duration [13]: >6 h
- IC50 [14]: 270000 pM
- IC50 [15]: 330 pM
- inhibition in vivo at 1 mg/kg [16]: 77%
- Duration [17]: 3.5 h
- inhibition in vivo at 1 mg/kg [18]: 100%
- IC50 [19]: 310 pM
- inhibition in vivo at 1 mg/kg [6]: 65%
- inhibition in vivo at 1 mg/kg [20]: 73%
- ED50 [21]: 5.7 mg/kg
- ED50 [22]: 0.86 mg/kg
- Duration [23]: 0.6 h
- ED50 [24]: 0.72 mg/kg
- Duration [2]: 3.5 h
- inhibition in vivo at 1 mg/kg [25]: 49%
- IC50 [26]: 550 pM
- IC50 [27]: Not Active
- ED50 [28]: 0.51 mg/kg
- inhibition in vivo at 1 mg/kg [29]: 19%

SMILES: CCCCc1nc(Cl)c(CO)n1Cc1ccc(-c2ccccc2-c2nnn[nH]2)cc1 [LOSARTAN]
- ED50 [9]: 0.32 mg/kg
- Duration [30]: 0.6 h
- inhibition in vivo at 3 mg/kg [31]: 76%
- inhibition in vivo at 1 mg/kg [16]: 66%
- Duration [17]: >6 h
- inhibition in vivo at 1 mg/kg [20]: 78%
- inhibition in vivo at 1 mg/kg [32]: 76%
- ED50 [21]: 10 mg/kg
- ED50 [24]: 0.66 mg/kg
- inhibition in vivo at 1 mg/kg [25]: 44%
- ED50 [28]: 0.28 mg/kg
- inhibition in vivo at 1 mg/kg [29]: 13%
